Measured values taken from patent US11021454B2, “Type of aryl benzofuran amidated derivative and medical use thereof” (CHINA PHARMACEUTICAL UNIVERSITY, priority 2016, dated 2021).
Marks after values point to notes of the source that are not given here.

How the values were obtained:
Normal hepatocyte LO2 = experiment: Inhibition of uric acid production in xanthine-modelled hepatocyte cell model; assay type: cell-based
Experimental: The effect of benzofuran amidated derivatives on uric acid production is evaluated using a cell model.
(2) Experimental procedure: Normal hepatocyte LO2 are inoculated in a 6-well plate (plate density 1×10^6 cells/mL), and cell experiments are performed after 4 hours of plating.
(3) Pre-treatment of mass spectrometry: take 100 μL of the medium collected, add MeOH 400 μL, CHCl3 100 μL and H2O 300 μL, perform vortex mixing, and centrifuging at 20000 g for 10 min, then take the upper layer for concentration and dry.

[1] = system: LPS-stimulated macrophage RAW 264.7; experiment: Scavenging of superoxide anion in LPS-stimulated macrophage RAW 264.7 (2-OH-E+ by LC-MS); assay type: cell-based; details: for Decrease of 2-OH-E+ (%): test drug 10 μM, 0.1 μg/mL LPS, 24 h, RAW 264.7; for scavenging effect on superoxide anion compared to the model group: LPS-stimulated RAW 264.7
Experimental: The antioxidant activity (the ability to scavenge superoxide anion) of the synthesized benzofuran amidated derivative is evaluated by a cell model.
After phagocytosis of bacteria, senescent denatured cells, immune complexes or oxidized low-density lipoproteins, mammalian macrophages cells enter a functional activation state, with enhanced intracellular lysosomal function and increased ROS levels, and they secrete and synthesize inflammatory cytokines. Lipopolysaccharide (LPS) is the main component of the cell wall of Gram-negative bacteria and is the main material basis for its pathogenesis; it can stimulate the production of monocytes/macrophages and release a large amount of reactive oxygen species (mainly including O2^− and H2O2), inflammatory factors such as nitric oxide (NO), IL-1β and Tumor necrosis factor-α (TNF-α) that are involved in the acute phase response of the body, causing inflammatory damage to the body. The present invention utilizes the LPS-stimulated macrophage model to evaluate the antioxidant activity of benzofuran amidated derivatives to scavenge superoxide anion at the cellular level.
(2) LPS: accurately weigh the appropriate amount of LPS, and prepare a sample stock solution of 0.1 g/ml, with DMEM and store at −20° C. for later use.
(3) Probe Stabilizer DTPA: Weigh accurately the amount of DTPA, prepare a 20 mM sample stock solution with DMSO, dilute to 100 µM with PB, and store at 4° C. for use.
(4) HE: Prepare a 20 mmol/L stock solution by dissolving the probe with dimethyl sulfoxide under anaerobic and dark conditions, and store at −80° C. in the dark. Take it out before use, prepare a 10 μmol/L solution with DMEM, place it on ice and store it in the dark.
(1) RAW 264.7 cells are cultured in Petri dishes (60 mm), 4 mL per dish, and incubated in a 5% CO2 incubator with saturated humidity at 37° C. The experiment is divided into blank group, model group and drug-administered group.
(2) After 12 h of cell culture, the supernatant is discarded, and the test drug with a final concentration of 10 μM containing 0.1 μg/mL LPS medium is added, and two parallel holes are provided for each sample to be tested.
(3) Continue to culture in a cell culture incubator for 24 h, the supernatant is discarded, the cells are washed with PBS, and added to DMEM medium containing the probe HE (10 μM) and cultured in the dark for 30 min.
(4) The cells are then washed twice with ice-cold PBS/(100 μM) DTPA, then added 1 mL PBS/(100 μM) DTPA, before the cells are divided into two with a spatula (700 μL and 300 μL) and collected into EP tubes; then they are centrifuged at 13,000 rpm for 10 min at 4° C., the supernatant is removed, and the cell pellet are stored at −80° C. for future use.
(2) Pretreatment of the sample to be tested: 500 μL acetonitrile is added to each EP tube, protected from light, sonicated (10 s, eight cycles, 100 W), and centrifuged at 12,000 g for 10 min at 4° C. The supernatant is transferred to a 1.5 mL EP tube and dried under vacuum for 1 h to obtain a red dried material; the sample is then re-dissolved with 100 μL of mass spectrometry water, and the internal standard substance galantamine is added to make the final concentration of the sample to be tested at 0.1 μM. The sample to be tested is then centrifuged at 13,000 rpm for 10 min at 4° C. and analyzed by LC-MS.

[2] = Hyperuricemia model induced by potassium oxonate in mice: serum uric acid; assay type: in vivo, Kunming mice; details: 2 h after administration, potassium oxonate 300 mg/kg
Experimental: The effect of benzofuran amidated derivatives on blood uric acid in mice is evaluated by an animal model of hyperuricemia induced by potassium oxonate
(1) Test animals: Kunming mice are provided by the Test Animals Center of Yangzhou University. Fasting is given 12 h before the drug administration and during the test period, and drinking water is not restricted during the experiment.
The test drug is prepared with 0.5% sodium carboxymethylcellulose (CMC-Na) at a suitable concentration; the normal control group of mice are intraperitoneally injected with 0.5% sodium carboxymethylcellulose, and the other groups are injected intraperitoneally with potassium oxonate 300 mg/kg. 1 h later, the mice in the normal control group and the model group are intraperitoneally injected with 0.5% sodium carboxymethylcellulose, and the other groups are intraperitoneally injected with 10 mL/kg of the test drug. 2 hours after the drug administration, 500 μL of blood is taken from the eyeball, placed at room temperature for 1 h, centrifuged at 3000 rpm for 5 min, and the upper serum is stored at −4° C. The uric acid level in the serum of the mice is determined according to the method as specified the uric acid detection kit.

xanthine oxidase = xanthine oxidase (Homo sapiens (Human), UniProt P47989); experiment: Xanthine oxidase inhibitory activity (absorbance at 295 nm, xanthine substrate); assay type: biochemical; details: average of four parallel experiments
xanthine oxidase, sequence (P47989 whole entry, species assumed): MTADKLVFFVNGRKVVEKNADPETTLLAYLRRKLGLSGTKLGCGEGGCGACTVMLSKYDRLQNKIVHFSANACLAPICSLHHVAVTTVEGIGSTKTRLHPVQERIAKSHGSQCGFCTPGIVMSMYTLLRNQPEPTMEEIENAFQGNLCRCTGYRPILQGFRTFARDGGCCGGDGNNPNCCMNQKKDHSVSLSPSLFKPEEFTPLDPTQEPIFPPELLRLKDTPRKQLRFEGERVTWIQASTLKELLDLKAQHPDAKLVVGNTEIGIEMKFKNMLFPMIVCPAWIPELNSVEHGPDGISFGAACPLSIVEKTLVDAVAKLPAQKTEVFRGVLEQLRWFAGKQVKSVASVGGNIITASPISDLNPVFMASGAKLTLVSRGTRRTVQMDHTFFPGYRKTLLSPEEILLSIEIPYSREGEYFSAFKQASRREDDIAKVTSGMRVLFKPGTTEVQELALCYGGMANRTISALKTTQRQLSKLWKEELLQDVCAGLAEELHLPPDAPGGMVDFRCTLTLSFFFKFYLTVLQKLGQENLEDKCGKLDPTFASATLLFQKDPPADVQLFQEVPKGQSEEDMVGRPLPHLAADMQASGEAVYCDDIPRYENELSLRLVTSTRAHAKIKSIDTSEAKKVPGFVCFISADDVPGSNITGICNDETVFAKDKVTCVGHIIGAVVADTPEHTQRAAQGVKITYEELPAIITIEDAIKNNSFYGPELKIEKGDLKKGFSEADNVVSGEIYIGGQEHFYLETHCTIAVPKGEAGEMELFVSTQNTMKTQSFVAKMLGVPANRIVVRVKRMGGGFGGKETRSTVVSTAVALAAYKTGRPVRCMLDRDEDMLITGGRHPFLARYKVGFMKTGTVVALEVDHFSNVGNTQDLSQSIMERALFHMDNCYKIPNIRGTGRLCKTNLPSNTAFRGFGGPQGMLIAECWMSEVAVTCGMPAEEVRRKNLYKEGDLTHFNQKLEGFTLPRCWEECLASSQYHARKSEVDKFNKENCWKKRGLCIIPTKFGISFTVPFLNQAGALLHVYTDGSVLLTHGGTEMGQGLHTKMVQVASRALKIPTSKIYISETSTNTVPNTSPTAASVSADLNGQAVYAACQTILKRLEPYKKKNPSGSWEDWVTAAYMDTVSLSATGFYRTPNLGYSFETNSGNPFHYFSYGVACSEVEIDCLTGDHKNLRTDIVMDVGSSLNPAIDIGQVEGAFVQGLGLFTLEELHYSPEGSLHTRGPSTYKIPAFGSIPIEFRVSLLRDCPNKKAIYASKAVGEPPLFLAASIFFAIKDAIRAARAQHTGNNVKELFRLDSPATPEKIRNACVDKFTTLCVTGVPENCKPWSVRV
Experimental: Determination of Xanthine Oxidase Inhibitory Activity of Aryl Benzofuran Amidated Derivatives and Reagents (Amino Derivatives)
(2) XOD solution: Take 25 U/2.6 mL of XOD, dilute to 0.08 U/mL of XOD working solution with 75 mM PB solution, mix well with a pipette, store on ice for future use;
(3) Substrate preparation: accurately weigh the appropriate amount of xanthine (XA) into 5 mL of 0.1 N NaOH solution, dissolve it ultrasonically, and add 95 mL of 75 mM PB solution to prepare a substrate mother liquor with a final concentration of 0.48 mM, perform vortex mixing for 1 min; it is to be freshly prepared before each experiment;
Use DB to dilute to different concentrations ([…]) before the experiment, and the DMSO content is less than 0.1%.
(§1) Data processing: Data is processed by using Excel analysis and half-inhibitory concentration (IC50) is calculated by using GraphPad Prism 6.0.2.

[3] = DPPH free radical scavenging experiment (antioxidant activity); assay type: biochemical; details: average of three parallel experiments; 0.1 mM DPPH, 30 min in the dark, 517 nm
Experimental: The antioxidant activity of the synthesized benzofuran amidated derivative is evaluated by DPPH free radical scavenging experiment.
(1) Preparation of DPPH solution: accurately weigh the appropriate amount of DPPH, add MeOH and perform ultrasonic dissolution to prepare 10 mM stock solution, and store at −20° C. Dilute to 0.1 mM with MeOH before the experiment and store in the dark;
Use MeOH to dilute to different concentrations ([…]) before the experiment.
as §1

SMILES: Cc1nc(-c2ccc(OCC(C)C)c(C#N)c2)sc1C(=O)O [Febuxostat]
- inhibition at 5 µM (Normal hepatocyte LO2; Homo sapiens, L02, 5 μM, LO2 cells, 10 μM xanthine, 24 h, read-out: Inhibition rate (%) of uric acid): 78.7%

SMILES: O=C(/C=C/c1ccc(O)c2oc(-c3ccc(O)c(O)c3)cc12)N[C@@H](Cc1ccc(O)cc1)C(=O)O [Compound 6e, (E)-(3-(2-(3,4-dihydroxyphenyl)-7-hydroxybenzofuran-4-yl)acryloyl)-L-tyrosine]
- Decrease of 2-OH-E+ (%) [1]: 83.41%
- Serum uric acid value ([2]; 20 mg/kg intraperitoneal): 3.82 ± 0.62 mg/dL
- Serum uric acid value ([2]; 40 mg/kg intraperitoneal): 3.54 ± 0.26 mg/dL
- Serum uric acid value ([2]; 80 mg/kg intraperitoneal): 3.26 ± 0.44 mg/dL

SMILES: Cc1c(C)c2c(c(C)c1O)CC[C@@](C)(CCC[C@H](C)CCC[C@H](C)CCCC(C)C)O2 [Ve, vitamin E, reference compound]
- Decrease of 2-OH-E+ (%) [1]: 53.18%

SMILES: N[C@H](Cc1ccc(O)c(O)c1)C(=O)O [D-dopa]
- IC50 (xanthine oxidase): > 60 µM

SMILES: N[C@@H](Cc1ccc(O)cc1)C(=O)O [L-tyr]
- IC50 (xanthine oxidase): > 60 µM

SMILES: C[C@H](NC(=O)/C=C/c1ccc(O)c2oc(-c3ccc(O)c(O)c3)cc12)C(=O)O [Compound 6c, (E)-(3-(2-(3,4-dihydroxyphenyl)-7-hydroxybenzofuran-4-yl)acryloyl)-L-alanine]
- scavenging effect on superoxide anion compared to the model group [1]: obvious scavenging effect
- Decrease of 2-OH-E+ (%) [1]: 41.65%

SMILES: N[C@@H](CS)C(=O)O [L-cys]
- IC50 (xanthine oxidase): > 60 µM

SMILES: N[C@@H](Cc1ccc(O)c(O)c1)C(=O)O [L-dopa]
- IC50 (xanthine oxidase): > 60 µM

SMILES: COC(=O)[C@@H](Cc1ccc(O)c(O)c1)NC(=O)/C=C/c1ccc(O)c2oc(-c3ccc(O)c(O)c3)cc12 [Compound 5b]
- Decrease of 2-OH-E+ (%) [1]: 74.16%
- Serum uric acid value (mg/dl) ([2]; 20 mg/kg intraperitoneal): 3.87 ± 0.31*^a mg/dl
- Serum uric acid value ([2]; 40 mg/kg intraperitoneal): 3.61 ± 0.25 mg/dL
- Serum uric acid value ([2]; 80 mg/kg intraperitoneal): 3.30 ± 0.46 mg/dL

SMILES: N[C@@H](Cc1c[nH]c2ccccc12)C(=O)O [L-trp]
- IC50 (xanthine oxidase): > 60 µM

SMILES: COC(=O)[C@H](C)NC(=O)/C=C/c1ccc(O)c2oc(-c3ccc(O)c(O)c3)cc12 [Compound 5c, Methyl (E)-(3-(2-(3,4-dihydroxyphenyl)-7-hydroxybenzofuran-4-yl)acryloyl)-L-alaninate]
- Decrease of 2-OH-E+ (%) [1]: 60.54%

SMILES: COC(=O)[C@@H](Cc1ccc(OC)c(OC)c1)OC(=O)/C=C/c1ccc(OC)c2oc(-c3ccc(OC)c(OC)c3)cc12 [Compound 7, (2R)-3-(3,4-dimethoxyphenyl)-1-methoxy-1-oxopropan-2-yl (2E)-3-[2-(3,4-dimethoxyphenyl)-7-methoxy-1-benzofuran-4-yl]prop-2-enoate]
- IC50 (xanthine oxidase): > 60 µM
- IC50 [3]: > 100 µM

SMILES: Oc1ncnc2[nH]ncc12 [Allopurinol, reference compound]
- Serum uric acid value ([2]; 20 mg/kg intraperitoneal): 3.18 ± 0.50 mg/dL

SMILES: O=C(/C=C/c1ccc(O)c2oc(-c3ccc(O)c(O)c3)cc12)O[C@H](Cc1ccc(O)c(O)c1)C(=O)O [Salvianolic acid C, reference compound]
- IC50 (xanthine oxidase): 8.26 µM
- IC50 [3]: 6.87 µM
- scavenging effect on superoxide anion compared to the model group [1]: obvious scavenging effect
- Decrease of 2-OH-E+ (%) [1]: 37.82%
- Inhibition rate (%) of uric acid (Normal hepatocyte LO2; 10 μM, LO2 cells, 10 μM xanthine, 24 h): 15.2%
- Inhibition rate (%) of uric acid (Normal hepatocyte LO2; 30 μM, LO2 cells, 10 μM xanthine, 24 h): 24.7%
- Inhibition rate (%) of uric acid (Normal hepatocyte LO2; 50 μM, LO2 cells, 10 μM xanthine, 24 h): 31.4%
- inhibitory effect on the formation of uric acid in hepatocyte model (Normal hepatocyte LO2; xanthine modeling): significant inhibitory effect

SMILES: COC(=O)[C@H](Cc1ccc(O)c(O)c1)NC(=O)/C=C/c1ccc(O)c2oc(-c3ccc(O)c(O)c3)cc12 [Compound 5a, Methyl (S,E)-3-(3,4-dihydroxyphenyl)-2-(3-(2-(3,4-dihydroxyphenyl)-7-hydroxybenzofuran-4-yl)acrylamido)propanoate]
- Decrease of 2-OH-E+ (%) [1]: 78.59%

SMILES: O=C(/C=C/c1ccc(O)c2oc(-c3ccc(O)c(O)c3)cc12)N[C@H](Cc1ccc(O)c(O)c1)C(=O)O [Compound 6b, (R,E)-3-(3,4-dihydroxyphenyl)-2-(3-(2-(3,4-dihydroxyphenyl)-7-hydroxybenzofuran-4-yl)acrylamido) propanoic Acid]
- Decrease of 2-OH-E+ (%) [1]: 80.81%

SMILES: C[C@H](N)C(=O)O [L-ala]
- IC50 (xanthine oxidase): > 60 µM

SMILES: O=C(/C=C/c1ccc(O)c2oc(-c3ccc(O)c(O)c3)cc12)N[C@@H](Cc1ccccc1)C(=O)O [Compound 6d, (E)-(3-(2-(3,4-dihydroxyphenyl)-7-hydroxybenzofuran-4-yl)acryloyl)-L-phenylalanine]
- Decrease of 2-OH-E+ (%) [1]: 81.27%

SMILES: N[C@@H](Cc1ccccc1)C(=O)O [L-phe]
- IC50 (xanthine oxidase): > 60 µM

SMILES: CSCC[C@H](N)C(=O)O [L-met]
- IC50 (xanthine oxidase): > 60 µM
